Key:
Assay type in all cases: in vivo
[1] = tested on: diamondback moth (Plutella xylostella (L.)); assay: Test A: control of diamondback moth on mustard plant, spray; details: sprayed at 250 ppm; assessed after 6 days
Procedure: (§1) Test compounds were formulated using a solution containing 10% acetone, […] and 300 ppm Activator 909 non-ionic surfactant (Loveland Products, Loveland, Colorado, USA). The formulated compounds were applied in 1 mL of liquid through an atomizer nozzle positioned 1.27 cm (0.5 inches) above the top of each test unit. Test compounds were sprayed at the rates indicated, and each test was replicated three times.
For evaluating control of diamondback moth (Plutella xylostella (L.)) the test unit consisted of a small open container with a 12-14-day-old mustard plant inside. This was pre-infested with ˜50 neonate larvae that were dispensed into the test unit via corn cob grits using an inoculator. The larvae moved onto the test plant after being dispensed into the test unit.
Test compounds were formulated and sprayed at 250 ppm. After spraying of the formulated test compound, each test unit was allowed to dry for 1 hour and then a black, screened cap was placed on top. The test units were held for 6 days in a growth chamber at 25° C. and 70% relative humidity. Plant feeding damage was then visually assessed based on foliage consumed, and larvae were assessed for mortality.

[2] = tested on: corn planthopper (Peregrinus maidis (Ashmead)); assay: whole plant or invertebrate; details: Peregrinus maidis, 144 h, 6 days; for mortality at 50 ppm: sprayed at 50 ppm; for mortality at 250 ppm: sprayed at 250 ppm; for mortality at 10 ppm: sprayed at 10 ppm
In short: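 Corn plants 3-4 days old were sprayed at 250, 50 and/or 10 ppm in 10% acetone with 300 ppm non-ionic surfactant, three replicates, contact and/or systemic exposure. After 1 h drying, ~15-20 nymphs (18-to-21-day-old) were added; mortality assessed visually after 6 days at 22-24° C, 50-70% RH.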

[3] = tested on: potato leafhopper (Empoasca fabae (Harris)); assay: Test C: control of potato leafhopper on Soleil bean plant, spray; details: Empoasca fabae, 144 h; sprayed at 250 ppm; 6 days
Procedure: as §1
For evaluating control of potato leafhopper (Empoasca fabae (Harris)) through contact and/or systemic means, the test unit consisted of a small open container with a 5-6-day-old Soleil bean plant (primary leaves emerged) inside. White sand was added to the top of the soil, and one of the primary leaves was excised prior to application of the test compound.
[…] After spraying of the formulated test compound, the test units were allowed to dry for 1 hour before they were post-infested with 5 potato leafhoppers (18-to-21-day-old adults). A black, screened cap was placed on the top of the test unit, and the test units were held for 6 days in a growth chamber at 20° C. and 70% relative humidity. Each test unit was then visually assessed for insect mortality.

[4] = tested on: green peach aphid (Myzus persicae (Sulzer)); assay: Test D: control of green peach aphid on radish plant, spray; details: Myzus persicae, 144 h, 6 days; for mortality at 50 ppm: sprayed at 50 ppm; for mortality at 250 ppm: sprayed at 250 ppm
In short: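 Radish plants (12-15 days old) pre-infested with 30-40 aphids, sprayed with compound in 10% acetone/water with 300 ppm non-ionic surfactant at 250 and/or 50 ppm, three replicates. Held 6 days at 19-21 °C, 50-70% relative humidity, then mortality scored visually.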

[5] = tested on: cotton melon aphid (Aphis gossypii (Glover)); assay: whole plant or invertebrate; details: Aphis gossypii, 144 h, 6 days; for mortality at 50 ppm: sprayed at 50 ppm; for mortality at 250 ppm: sprayed at 250 ppm
In short: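 Compounds were formulated in a solution of 10% acetone, […] and 300 ppm Activator 909 non-ionic surfactant and sprayed as 1 mL through an atomizer nozzle 1.27 cm (0.5 inches) above each test unit, with three replicates. Units were pre-infested with 30-40 aphids on leaf pieces via the cut-leaf method, soil covered with sand, then kept 6 days at 19° C. and 70% relative humidity before visual mortality scoring.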

[6] = tested on: sweetpotato whitefly (Bemisia tabaci (Gennadius)); assay: Test F: control of sweetpotato whitefly on cotton plant, spray; details: 312 h, 13 days; for mortality at 50 ppm: sprayed at 50 ppm; for mortality at 250 ppm: sprayed at 250 ppm
In short: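 Cotton plants 12–14 days old, trimmed to one true leaf and carrying at least 15 whitefly eggs, were sprayed at 250 and/or 50 ppm in acetone/water with non-ionic surfactant, three replicates. After 13 days at 28° C and 50-70% relative humidity, insect mortality was scored visually.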

[7] = tested on: Western Flower Thrips (Frankliniellla occidentalis (Pergande)); assay: Test G: control of Western Flower Thrips on Soleil bean plant, spray; details: sprayed at 250 ppm; 6 days
Procedure: as §1
For evaluating control of the Western Flower Thrips (Frankliniellla occidentalis (Pergande)) through contact and/or systemic means, the test unit consisted of a small open container with a 5-7-day-old Soleil bean plant inside.
Test compounds were formulated and sprayed at 250 ppm. After spraying, the test units were allowed to dry for 1 hour, and then about 60 thrips (adults and nymphs) were added to each unit. A black, screened cap was placed on top, and the test units were held for 6 days at 25° C. and 45-55% relative humidity. Each test unit was then visually assessed for plant damage and insect mortality.

| Structure (SMILES) | control efficacy (40% or less feeding damage and/or 100% mortality) [1] | mortality at 50 ppm [2] [%] | mortality at 250 ppm [2] [%] | mortality at 250 ppm [3] [%] | mortality at 50 ppm [4] [%] | mortality at 250 ppm [4] [%] | mortality at 50 ppm [5] [%] | mortality at 250 ppm [5] [%] | mortality at 10 ppm [2] [%] | mortality at 50 ppm [6] [%] | mortality at 250 ppm [6] [%] | control efficacy (30% or less plant damage and/or 100% mortality) [7] |
| --- | --- | --- | --- | --- | --- | --- | --- | --- | --- | --- | --- | --- |
| Fc1cncc(-n2cccn2)c1C(F)c1ccc(C(F)(F)F)cc1 (centres unmarked) [Compound 21] | very good to excellent levels of control efficacy | ≥ 80 | ≥ 80 | ≥ 80 | ≥ 80 | ≥ 80 | ≥ 80 | ≥ 80 | – | – | – | – |
| FC(c1ccc(SC(F)(F)F)cc1)c1ccncc1-n1nccn1 (centres unmarked) [Compound 69] | – | ≥ 80 | ≥ 80 | ≥ 80 | ≥ 80 | ≥ 80 | ≥ 80 | ≥ 80 | ≥ 80 | ≥ 70 | ≥ 70 | – |
| Fc1cncc(-c2ncco2)c1C(F)c1ccc(OC(F)(F)F)cc1 (centres unmarked) [Compound 32] | very good to excellent levels of control efficacy | ≥ 80 | ≥ 80 | ≥ 80 | – | – | ≥ 80 | ≥ 80 | ≥ 80 | – | – | very good to excellent levels of control efficacy |
| FC(c1ccc(OC(F)(F)F)cc1)c1c(Br)cncc1-n1nc(Br)c(Br)n1 (racemic) [Compound 29] | very good to excellent levels of control efficacy | – | – | – | – | – | – | – | – | – | – | very good to excellent levels of control efficacy |
| FC(c1ccc(OC(F)(F)F)cc1)c1c(Cl)cncc1-c1nccs1 (centres unmarked) [Compound 50] | very good to excellent levels of control efficacy | ≥ 80 | – | – | – | – | ≥ 80 | ≥ 80 | ≥ 80 | – | – | very good to excellent levels of control efficacy |
| Fc1cncc(-n2cccn2)c1C(F)c1ccc(SC(F)(F)F)cc1 (centres unmarked) [Compound 1] | very good to excellent levels of control efficacy | ≥ 80 | ≥ 80 | – | – | ≥ 80 | ≥ 80 | ≥ 80 | – | ≥ 70 | ≥ 70 | very good to excellent levels of control efficacy |
| Fc1cncc(-c2ccno2)c1C(F)c1ccc(OC(F)(F)F)cc1 (centres unmarked) [Compound 41] | – | ≥ 80 | – | – | – | – | – | ≥ 80 | ≥ 80 | – | – | very good to excellent levels of control efficacy |

From patent US12568969B2, “Pyridine compounds for controlling invertebrate pests” (FMC Corporation, priority 2020, dated 2026)
